Measured values published in ChEMBL document CHEMBL4814027, “Synthesis and biological evaluation of naphthoquinone phenacylimidazolium derivatives” (Bioorg Med Chem Lett, 2021).

Tests used:
MCF7 = assay: Cytotoxicity against human MCF7 cells by MTT assay; type: functional, cell-based
HeLa = assay: Cytotoxicity against human HeLa cells by MTT assay; type: functional, cell-based
A549 = assay: Cytotoxicity against human A549 cells by MTT assay
L929 = assay: Cytotoxicity against mouse L929 cells by MTT assay
[1] = Selectivity ratio of IC50 for mouse L929 cells to IC50 for human MCF7 cells; type: toxicity; conditions: L929 cells versus MCF7 cells, read-out: Ratio IC50
[2] = Selectivity ratio of IC50 for mouse L929 cells to IC50 for human HeLa cells; type: toxicity; conditions: L929 cells versus HeLa cells, read-out: Ratio IC50
[3] = Selectivity ratio of IC50 for mouse L929 cells to IC50 for human A549 cells; type: toxicity; conditions: L929 cells versus A549 cells, read-out: Ratio IC50

Structure (SMILES)	IC50 (MCF7)	IC50 (HeLa)	IC50 (A549)	IC50 (L929)	selectivity ratio [1]	selectivity ratio [2]	selectivity ratio [3]
O=C(C[n+]1cn(-c2ccccc2)c2c1C(=O)c1ccccc1C2=O)c1ccc([N+](=O)[O-])cc1	59.1 µM	20.3 µM	40.4 µM	31 µM	0.52	1.53	0.77
COCCn1c[n+](CC(=O)c2ccc([N+](=O)[O-])cc2)c2c1C(=O)c1ccccc1C2=O	18.9 µM	7.8 µM	2.9 µM	41.3 µM	2.19	5.29	14.2
Cc1cc(C)c(-n2c[n+](CC(=O)c3ccc([N+](=O)[O-])cc3)c3c2C(=O)c2ccccc2C3=O)c(C)c1	12.3 µM	41.7 µM	6.6 µM	24.5 µM	1.99	0.59	3.71
Cc1ccc(C(=O)C[n+]2cn(C)c3c2C(=O)c2ccccc2C3=O)cc1	0.6 µM	3.5 µM	0.16 µM	14.7 µM	24.5	4.2	91.9
CC(C)Cn1c[n+](CC(=O)c2ccccc2)c2c1C(=O)c1ccccc1C2=O	0.52 µM	0.9 µM	0.32 µM	2.7 µM	5.19	3	8.44
Cn1c[n+](CC(=O)c2ccc(Cl)cc2)c2c1C(=O)c1ccccc1C2=O	4.9 µM	6.6 µM	1 µM	14.2 µM	2.9	2.15	14.2
CC(C)Cn1c[n+](CC(=O)c2ccc([N+](=O)[O-])cc2)c2c1C(=O)c1ccccc1C2=O	2.3 µM	2.7 µM	1 µM	4.6 µM	2	1.7	4.6
O=C(C[n+]1cn(C2CC2)c2c1C(=O)c1ccccc1C2=O)c1ccc([N+](=O)[O-])cc1	60.4 µM	22.2 µM	12.3 µM	6.1 µM	0.1	0.27	0.5
CC(C)Cn1c[n+](CC(=O)N(C)C)c2c1C(=O)c1ccccc1C2=O	65.6 µM	12.8 µM	0.4 µM	58.8 µM	0.9	4.59	147
Cn1c[n+](CC(=O)c2ccc3ccccc3c2)c2c1C(=O)c1ccccc1C2=O	10.5 µM	6.1 µM	1.4 µM	19 µM	1.81	3.11	13.6
CC(C)Cn1c[n+](CC(=O)c2ccc(Cl)cc2)c2c1C(=O)c1ccccc1C2=O	0.66 µM	3.8 µM	3.3 µM	9.4 µM	14.2	2.47	2.85
C#CCn1c[n+](CC(=O)c2ccc([N+](=O)[O-])cc2)c2c1C(=O)c1ccccc1C2=O	40.9 µM	17.2 µM	15.1 µM	19 µM	0.46	1.1	1.26
Cn1c[n+](CC(=O)c2cccc([N+](=O)[O-])c2)c2c1C(=O)c1ccccc1C2=O	12.9 µM	7.6 µM	2.2 µM	36.9 µM	2.86	4.86	16.8
Cn1c[n+](CC(=O)c2ccc(F)cc2)c2c1C(=O)c1ccccc1C2=O	0.34 µM	3.1 µM	1.5 µM	18.2 µM	53.5	5.87	12.1
CC(C)Cn1c[n+](CC(=O)c2ccc(Br)cc2)c2c1C(=O)c1ccccc1C2=O	0.69 µM	2.7 µM	2.4 µM	15.5 µM	22.5	5.74	6.46
CC(C)c1cccc(C(C)C)c1-n1c[n+](CC(=O)c2ccc([N+](=O)[O-])cc2)c2c1C(=O)c1ccccc1C2=O	47.9 µM	> 100 µM	26.7 µM	46.5 µM	0.97	< 0.47	1.74
Cn1c[n+](CC(=O)c2ccc([N+](=O)[O-])cc2)c2c1C(=O)c1ccccc1C2=O	12.1 µM	10.1 µM	3.6 µM	53.1 µM	4.39	5.26	14.8
CC(C)Cn1c[n+](CC(=O)c2ccc(F)cc2)c2c1C(=O)c1ccccc1C2=O	0.75 µM	0.41 µM	0.2 µM	16.4 µM	21.9	40	82

Structure (SMILES)	IC50 (MCF7)	IC50 (HeLa)	IC50 (A549)	IC50 (L929)	selectivity ratio [1]	selectivity ratio [2]	selectivity ratio [3]
Cn1c[n+](CC(=O)C(C)(C)C)c2c1C(=O)c1ccccc1C2=O	7.6 µM	5.8 µM	2.4 µM	27.4 µM	3.61	4.72	11.4
CCn1c[n+](CC(=O)c2ccc([N+](=O)[O-])cc2)c2c1C(=O)c1ccccc1C2=O	16.7 µM	8.8 µM	2.1 µM	27.7 µM	1.66	3.15	13.2
CC(C)Cn1c[n+](CC(=O)c2ccc3ccccc3c2)c2c1C(=O)c1ccccc1C2=O	2.7 µM	4.3 µM	1.3 µM	17.7 µM	6.56	4.12	13.6
CCC(C)n1c[n+](CC(=O)c2ccc([N+](=O)[O-])cc2)c2c1C(=O)c1ccccc1C2=O (configuration not stated)	8.9 µM	8.4 µM	1.8 µM	27.1 µM	3.04	3.23	15.1
CC(C)Cn1c[n+](CC(=O)c2cccc([N+](=O)[O-])c2)c2c1C(=O)c1ccccc1C2=O	2.8 µM	4.2 µM	2.9 µM	16.2 µM	5.79	3.86	5.59
CCCCn1c[n+](CC(=O)c2ccc([N+](=O)[O-])cc2)c2c1C(=O)c1ccccc1C2=O	6.2 µM	4.4 µM	2.5 µM	20 µM	3.23	4.55	8
Cn1c[n+](CC(=O)c2ccco2)c2c1C(=O)c1ccccc1C2=O	1.4 µM	4.9 µM	0.1 µM	13.6 µM	9.71	2.78	136
CC(C)Cn1c[n+](CC(=O)c2ccco2)c2c1C(=O)c1ccccc1C2=O	0.32 µM	0.6 µM	0.37 µM	8.5 µM	26.6	14.2	23
Cn1c[n+](CC(=O)c2ccc(Br)cc2)c2c1C(=O)c1ccccc1C2=O	7.3 µM	8.3 µM	0.95 µM	20.7 µM	2.84	2.49	21.8
CN(C)C(=O)C[n+]1cn(C)c2c1C(=O)c1ccccc1C2=O	7.6 µM	0.2 µM	0.1 µM	4.3 µM	0.57	21.5	43
CCCn1c[n+](CC(=O)c2ccc([N+](=O)[O-])cc2)c2c1C(=O)c1ccccc1C2=O	8.3 µM	8.4 µM	3 µM	24.2 µM	2.92	2.88	8.07
CC(C)Cn1c[n+](CC(=O)c2ccc(C(F)(F)F)cc2)c2c1C(=O)c1ccccc1C2=O	7.6 µM	9.2 µM	7.8 µM	26.3 µM	3.46	2.86	3.37
Cn1c[n+](CC(=O)c2ccccc2[N+](=O)[O-])c2c1C(=O)c1ccccc1C2=O	18 µM	8.7 µM	0.5 µM	41.8 µM	2.32	4.8	83.6
CC(C)Cn1c[n+](CC(=O)C(C)(C)C)c2c1C(=O)c1ccccc1C2=O	10.4 µM	9.4 µM	3.3 µM	10.4 µM	1	1.11	3.15
Cc1ccc(C(=O)C[n+]2cn(CC(C)C)c3c2C(=O)c2ccccc2C3=O)cc1	0.56 µM	1.8 µM	0.35 µM	4.8 µM	8.57	2.67	13.7
Cn1c[n+](CC(=O)c2cccs2)c2c1C(=O)c1ccccc1C2=O	0.94 µM	7 µM	0.3 µM	22.9 µM	24.4	3.27	76.3
COc1ccc(C(=O)C[n+]2cn(CC(C)C)c3c2C(=O)c2ccccc2C3=O)cc1	0.31 µM	0.08 µM	0.19 µM	2.3 µM	7.42	28.8	12.1
Cn1c[n+](CC(=O)c2ccc(C(F)(F)F)cc2)c2c1C(=O)c1ccccc1C2=O	7.4 µM	9.2 µM	1.3 µM	19.3 µM	2.61	2.1	14.9
